Series [1] can be described thus: DNDI: Cytotoxicity against L929 mouse fibroblasts, 72 hour. It is filed as toxicity, cell-based. The conditions noted are these: mouse, L929 mouse fibroblasts.
Another series concerns Trypanosoma brucei. The experiment in a line: DNDI: Inhibition of Human African Trypanosomiasis, SBRI 427, in vitro. It is filed as functional, organism-based. The conditions noted are these: Trypanosoma brucei, SBRI 427; read-out: IC50.

This is an account of results in ChEMBL document CHEMBL1857833, “Screening and optimization of specific chemical series against human African Trypanosomiasis (HAT)”.

SMILES strings stand for the structures. Values after ≈ are worked out from the molar mass of the structure shown.

For the compound `O=c1cc(-c2ccccc2)[nH]c2cc(-c3ccc(F)cc3)nn12`, in series [1], half-maximal inhibition (IC50 at 72 h) was put at 10 µg/mL (≈ 32.8 µM). The IC50 with Trypanosoma brucei was over 5 µg/mL.

`Cc1ccc(CNC(c2nc(Cc3ccccc3)c(N3CCOCC3)o2)C2CC2)cc1` (configuration not stated) showed an IC50 at 72 h in series [1] of over 10 µg/mL. Also, the IC50 in the series with Trypanosoma brucei was over 5 µg/mL.

The compound `CCCCc1ccc(-c2nc(Nc3ccccn3)co2)cc1` registered an IC50 at 72 h in series [1] of over 10 µg/mL. The IC50 in the series with Trypanosoma brucei is over 5 µg/mL.

Turning to `CCC(C)Oc1ccc(-c2nc(CNCCCN(C)C)co2)cc1` (configuration not stated), the half-inhibitory concentration (IC50) at 72 h in series [1] is over 10 µg/mL. Further, in the series on Trypanosoma brucei, the IC50 was over 5 µg/mL.

Take `Fc1ccc(-c2cc3nc(-c4ccccc4)cc(NCCCn4ccnc4)n3n2)cc1`: the IC50 at 72 h in series [1] was 7.66 µg/mL (≈ 18.6 µM). In the series with Trypanosoma brucei, the IC50 was determined as 4.04 µg/mL (≈ 9.79 µM).

In series [1], `CCCCc1ccc(-c2nc(CNCCCN(CC)CC)co2)cc1` returned an IC50 at 72 h of 0.89 µg/mL (≈ 2.59 µM). For the same compound, the IC50 in the series on Trypanosoma brucei worked out at 0.1 µg/mL (≈ 0.291 µM).

`c1ccc(Cc2nc(C(NCc3ccco3)C3CC3)oc2N2CCOCC2)cc1` (configuration not stated) had an IC50 at 72 h in series [1] of over 10 µg/mL. Further, in the series with Trypanosoma brucei, the 50% inhibitory concentration (IC50) is over 5 µg/mL.

Take `O=C(NCC1C(O)=C(C(=O)c2ccccc2)C(=O)N1C(=O)OCc1ccccc1)OCc1ccccc1` (configuration not stated): inhibition in series [1] was half-maximal at 9.13 µg/mL (≈ 18.2 µM) (IC50 at 72 h). Moreover, in the series on Trypanosoma brucei, the IC50 is over 5 µg/mL.

`C/C(O)=C1\C(=O)NC(COCc2ccccc2)C1=O` (configuration not stated) gave an IC50 at 72 h in series [1] of over 10 µg/mL. In the series with Trypanosoma brucei, the 50% inhibitory concentration (IC50) was over 5 µg/mL.

On to `CCCCCC(C)NCc1coc(-c2cc(Cl)ccc2O)n1` (configuration not stated), for which the half-inhibitory concentration (IC50) at 72 h in series [1] was determined as 2.33 µg/mL (≈ 7.22 µM). For the same compound, the IC50 in the series with Trypanosoma brucei amounted to 2.46 µg/mL (≈ 7.62 µM).

Compound `C/C(O)=C1/C(=O)CN(C)C1=O` registered an IC50 at 72 h in series [1] of over 10 µg/mL. Also, the half-inhibitory concentration (IC50) with Trypanosoma brucei is over 5 µg/mL.

In turn, `Cc1ccc(CNC(CC(C)C)c2nc(-c3ccccc3)c(N3CCOCC3)o2)cc1` (configuration not stated) registered an IC50 at 72 h in series [1] of over 10 µg/mL. In the series with Trypanosoma brucei, the IC50 turned out to be 4.22 µg/mL (≈ 10.1 µM).

For the compound `NCCCNc1cc(-c2ccccc2)nc2cc(-c3ccc(F)cc3)nn12`, in series [1], the IC50 at 72 h was determined as 0.76 µg/mL (≈ 2.1 µM). The IC50 in the series on Trypanosoma brucei worked out at 0.554 µg/mL (≈ 1.53 µM).

In the case of `CCCCCC(C)NCc1coc(-c2ccc3c(c2)OCO3)n1` (configuration not stated), inhibition in series [1] was half-maximal at 10 µg/mL (≈ 31.6 µM) (IC50 at 72 h). The half-maximal inhibitory concentration (IC50) in the series with Trypanosoma brucei was 3.61 µg/mL (≈ 11.4 µM).

Regarding `CN(C)CCCNCc1coc(-c2ccc(OC3CCCC3)cc2)n1`, the half-inhibitory concentration (IC50) at 72 h in series [1] was over 10 µg/mL. Also, the IC50 with Trypanosoma brucei is over 5 µg/mL.

For the compound `CCC(CC)Oc1ccc(-c2nc(CNCCCN(C)C)co2)cc1`, the IC50 at 72 h in series [1] was over 10 µg/mL. In addition, the IC50 in the series on Trypanosoma brucei is over 5 µg/mL.

In the case of `CC(C)COc1ccc(-c2nc(CNCCCN(C)C)co2)cc1`, in series [1], the IC50 at 72 h is over 10 µg/mL. In the series on Trypanosoma brucei, the IC50 is over 5 µg/mL.

The compound `CCCCCC(C)NCc1coc(-c2cccc(OCCCC)c2)n1` (configuration not stated) had an IC50 at 72 h in series [1] of 1.7 µg/mL (≈ 4.93 µM). Further, in the series on Trypanosoma brucei, the half-inhibitory concentration (IC50) worked out at 1.02 µg/mL (≈ 2.96 µM).

As to `CCCCCCC/C(O)=C1\C(=O)NC(CC(C)C)C1=O` (configuration not stated), the IC50 at 72 h in series [1] is over 10 µg/mL. The IC50 with Trypanosoma brucei was over 5 µg/mL.

For the compound `CCCCCC(C)NCc1coc(-c2cc(C(C)=O)ccc2O)n1` (configuration not stated), in series [1], the IC50 at 72 h turned out to be 3.47 µg/mL (≈ 10.5 µM). The IC50 in the series on Trypanosoma brucei amounted to 2.32 µg/mL (≈ 7.02 µM).

With `CCCCc1ccc(-c2nc(CNCCCN3CCOCC3)co2)cc1`, in series [1], half-maximal inhibition (IC50 at 72 h) required 2.08 µg/mL (≈ 5.82 µM). Moreover, the IC50 in the series on Trypanosoma brucei came out at 0.34 µg/mL (≈ 0.951 µM).

In series [1], `CCCCCCC/C(O)=C1/C(=O)CN(C)C1=O` showed an IC50 at 72 h of over 10 µg/mL. The half-inhibitory concentration (IC50) in the series with Trypanosoma brucei is over 5 µg/mL.

With `CCCCCC(C)NCc1coc(-c2ccc(OCCCC)c(OC)c2)n1` (configuration not stated), the IC50 at 72 h in series [1] turned out to be 1.48 µg/mL (≈ 3.95 µM). Also, the IC50 in the series on Trypanosoma brucei came out at 0.38 µg/mL (≈ 1.01 µM).

Turning to `CCCCc1ccc(-c2nc(CN3CCN(C(=O)OC(C)(C)C)CC3)co2)cc1`, the IC50 at 72 h in series [1] was over 10 µg/mL. Further, the IC50 with Trypanosoma brucei was over 5 µg/mL.

In turn, `COC(=O)c1sccc1NC(N)=O` yielded an IC50 at 72 h in series [1] of over 10 µg/mL. Moreover, the concentration for half-maximal inhibition (IC50) in the series on Trypanosoma brucei is over 5 µg/mL.

`CCCCCC(C)NCc1coc(-c2ccc(OCc3ccc(F)cc3)cc2)n1` (configuration not stated): half-maximal inhibition in series [1] (IC50 at 72 h) was put at 0.95 µg/mL (≈ 2.4 µM). Also, in the series on Trypanosoma brucei, the IC50 worked out at 0.38 µg/mL (≈ 0.958 µM).

Turning to `O=C1CC(=O)N(C(=O)OCc2ccccc2)C1COCc1ccccc1` (configuration not stated), in series [1], the IC50 at 72 h was over 10 µg/mL. In addition, in the series on Trypanosoma brucei, the IC50 was over 5 µg/mL.

The compound `O=c1[nH]c(=O)c2sccc2[nH]1` returned a concentration for half-maximal inhibition (IC50) at 72 h in series [1] of over 10 µg/mL. Moreover, the IC50 in the series with Trypanosoma brucei is over 5 µg/mL.

In series [1], `CCCCCC(C)NCc1coc(-c2ccccc2C#N)n1` (configuration not stated) returned an IC50 at 72 h of over 10 µg/mL. In addition, the IC50 in the series with Trypanosoma brucei turned out to be 3.76 µg/mL (≈ 12.6 µM).

In series [1], `Clc1nc(Oc2cccc3ccccc23)c2sccc2n1` displayed an IC50 at 72 h of 2.52 µg/mL (≈ 8.06 µM). Further, in the series with Trypanosoma brucei, the IC50 was over 5 µg/mL.

In turn, `CN(C)CCCNc1cc(-c2ccccc2)nc2cc(-c3ccc(F)cc3)nn12` displayed a concentration for half-maximal inhibition (IC50) at 72 h in series [1] of 2.57 µg/mL (≈ 6.6 µM). Further, the IC50 in the series with Trypanosoma brucei came out at 1.1 µg/mL (≈ 2.82 µM).

Compound `O=c1cc(-c2ccccc2)[nH]c2cc(-c3cccc(F)c3)nn12` came in with a half-maximal inhibitory concentration (IC50) at 72 h in series [1] of 4.88 µg/mL (≈ 16 µM). For the same compound, in the series on Trypanosoma brucei, the IC50 was over 5 µg/mL.

With `O=C(OC1=CC(=O)N(C(=O)OCc2ccccc2)C1COCc1ccccc1)c1ccccc1` (configuration not stated), the IC50 at 72 h in series [1] is over 10 µg/mL. In addition, in the series on Trypanosoma brucei, the IC50 is over 5 µg/mL.

Consider `CCCCc1ccc(-c2nc(Nc3cccnc3)co2)cc1`, for which half-maximal inhibition in series [1] (IC50 at 72 h) was put at 6.24 µg/mL (≈ 21.3 µM). In the series with Trypanosoma brucei, the IC50 was over 5 µg/mL.

Regarding `Fc1ccc(-c2cc3nc(-c4ccccc4)cc(NCCCN4CCOCC4)n3n2)cc1`, the IC50 at 72 h in series [1] is over 10 µg/mL. Besides, the IC50 in the series on Trypanosoma brucei was over 5 µg/mL.

In series [1], `CCCCc1ccc(-c2nc(CN3C(=O)c4ccccc4C3=O)co2)cc1` registered a half-maximal inhibitory concentration (IC50) at 72 h of over 10 µg/mL. The IC50 with Trypanosoma brucei was over 5 µg/mL.
